Measured values from patent publication US20160058006A1, “COMPOSITIONS AND METHODS FOR ATTRACTING STINK BUGS” (BEDOUKIAN RESEARCH, INC., priority 2014, published 2016).

How the values were obtained:
[1] = system: individual sensillum (olfactory receptor neurons) on the brown marmorated stink bug antenna; assay: electrophysiological recording from an individual antennal sensillum in response to an olfactory stimulus; set-up: species or system Halyomorpha halys; conditions: 2 second stimulus, 100 μg dosage load in ethanol, versus 2 second control stimulus; FIG. 3
From the text: Many aspects of insect behavior are mediated by olfactory signals. These olfactory signals are detected by sensory structures called sensilla which are innervated by olfactory receptor neurons and are located on various parts of the insect body including the antenna, mouthparts and tarsi. It is possible to determine the capabilities of the peripheral sensory system by using electrophysiology methods. Basically, extracellular neural responses from the individual receptor neurons located in the sensilla on the antenna of the stinkbug can be electrically recorded in response to stimulation with various concentrations of olfactory odorants.
Details of the recording methodology for insects have been described previously. […] The action potentials within this sensillum can then be monitored and recorded. […] Electrical signals obtained from the neurons within the sensillum are band-passed filtered (300-3K Hz), amplified (1000×) and analyzed using commercial software, Autospike (Syntech, Hilversum, The Netherlands). […]
FIG. 3 represents screen shots of the analysis of the above trace (FIG. 2) from the software that used to analyze the electrophysiological data. […] In the histograms, each bar represents the number of impulses calculated for a metric of impulse size.

[2] = system: brown marmorated stink bug; conditions: cited from earlier work

Compound	number of impulses (activity) in stimulus histogram compared to control histogram [1]	attraction by itself ([2]; early season trials)	cross-attraction of the brown marmorated stink bug ([2]; in vivo)	attraction of adults ([2]; late in the season)
ethyl (2E,4E,6Z)-decatrienoate	more activity in the bottom stimulus histogram as compared to the top control histogram			
CCC\C=C/C=C/C=C/C(=O)OC [methyl (2E,4E,6Z)-decatrienoate]		not attractive by itself	cross-attractive	reliably attracted
